Results as given in patent US12571805B2, “Methods and compositions for determining OxPL-associated diseases and disorders” (The Regents of the University of California, priority 2019, dated 2026).

Tests used:
primary hepatocytes = test: OxPAPC treatment of primary hepatocytes: ROS, mitochondrial membrane potential, fatty acid oxidation, SOD activity; type: cell-based, mouse; conditions: 200 μM MnTBAP 1 hour, then OxPAPC 100 μg/mL 4 hours, Ldlr−/− hepatocytes
Protocol: Primary hepatocyte isolation: Primary hepatocytes were isolated from 6-week-old Ldlr^−/− and E06-scFvLdlr^−/− mice by a 2-step collagenase perfusion method. Briefly, HBSS (Life Technologies Co.; no Calcium and Magnesium, 0.5 mM EDTA, 25 mM HEPES) was used to perfuse liver at 10 mL/min speed until the liver turns into pale. Afterward, the liver was perfused with HBSS digestion buffer (Life Technologies Co.; 30 mg/100 mL collagenase I, 2 tablet/100 mL protease inhibitor) at 15 mL/min speed for 18 min. After sequential flows, cells were smashed through 100 μm strainer and washed with Williams' Medium E (Gibco, Grand Island, NY). Hepatocytes were isolated by density gradient centrifugation using percoll (Pharmacia, Sweden). Hepatocytes with 95% viability were cultured in Williams' Medium E supplemented with 5% serum, 0.5% penicillin/streptomycin and 15 mM HEPES at 37° C. in a 5% CO2 incubator overnight before use in experimentation.
ROS and Mitochondrial membrane potential measurement: Total ROS was determined with Total ROS detection Kit (ENZ-51011 Enzo Life Sciences Inc.) and mitochondrial ROS levels using MitoSOX (Invitrogen) following the manufacturers' instructions. Mitochondrial membrane potential (Ψm) was measured using TMRM as previously described (Shimada et al., 2012).
Ex vivo/in vitro fatty acid oxidation assay: Liver or adipose tissues were dissected, weighted, quickly rinsed in PBS. Minced tissues were placed in 96-well tissue culture plate. […] Fatty Acid Oxidation was measured with combination of Fatty Acid Oxidation Assay Kit (Abcam) and Oxygen Consumption Assay Kit (Abcam) according to the manufacturer's instruction. […] Fluorescence was measured at 37° C. for 30 min by Tecan Infinite M200 Pro.
In vitro modification of SOD and SOD activity: Recombinant human MnSOD (Abcam, ab82656) was incubated with POVPC (Avanti Polar Lipids, 870606) (molar ration 1:40) or vehicle at 37° C. overnight. […] SOD activity of recombinant and modified MnSOD and liver and cell lysates was measured with Superoxide Dismutase Activity Assay Kit (Abcam) according to the manufacturer's instruction.

Recombinant human MnSOD = target: T1, Recombinant human MnSOD (Homo sapiens, UniProt P04179); test: In vitro modification of SOD and SOD activity; type: biochemical; conditions: POVPC molar ratio 1:40, 37° C. overnight, vs native MnSOD
T1 construct: purchased Abcam ab82656
T1 sequence (P04179 25-222): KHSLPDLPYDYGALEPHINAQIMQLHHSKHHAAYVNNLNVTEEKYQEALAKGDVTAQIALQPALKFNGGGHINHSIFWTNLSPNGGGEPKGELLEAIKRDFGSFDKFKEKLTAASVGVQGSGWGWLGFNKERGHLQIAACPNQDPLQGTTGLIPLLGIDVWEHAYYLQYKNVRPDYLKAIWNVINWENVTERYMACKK
Protocol: In vitro modification of SOD and SOD activity: Recombinant human MnSOD (Abcam, ab82656) was incubated with POVPC (Avanti Polar Lipids, 870606) (molar ration 1:40) or vehicle at 37° C. overnight. 300 μg/mL NaBH3CN was added to stabilize reversible OxPL adducts. Both native and POVPC modified MnSOD were dialyzed extensively against PBS. SOD activity of recombinant and modified MnSOD and liver and cell lysates was measured with Superoxide Dismutase Activity Assay Kit (Abcam) according to the manufacturer's instruction.

SMILES	OxPL-diminished mitochondrial membrane potential (primary hepatocytes)	mitochondrial ROS accumulation (primary hepatocytes)	total ROS accumulation (primary hepatocytes)	MnSOD activity of POVPC modified MnSOD (Recombinant human MnSOD)
O=C(O)c1ccc(/C2=C3\C=CC(=N3)/C(c3ccc(C(=O)O)cc3)=c3/cc/c4[n]3[Mn]([Cl])[n]3c2ccc3/C(c2ccc(C(=O)O)cc2)=C2/C=CC(=N2)\C=4c2ccc(C(=O)O)cc2)cc1 [MnTBAP]	restored	abrogated	abrogated	–
CCCCCCCCCCCCCCCC(=O)OC[C@H](COP(=O)([O-])OCC[N+](C)(C)C)OC(=O)CCCC=O [POVPC, 1-palmitoyl-2-(5′-oxo-valeroyl)-sn-glycero-3-phosphocholine]	–	–	–	significantly decreased activity
